Columns and labels:
[1] = tested on: BALB/c mice; test: Fluc activity in tissues of mice administered with Fluc mRNA-loaded lipid nanoparticles; format: in vivo; details: for Fluc activity, predominant organ (liver or spleen): Example 34, TOT-5/DSPC/chol/PEG-DMG=65/X/35-X/1.5 (mol%), i.v. 0.01 mg/kg Fluc mRNA, 6 hours
Protocol: Lipid nanoparticles were administered to mice by intravenous injection into the tail vein using a 27G needle. Unless otherwise specified, BALB/c mice (4 to 5 weeks old, female) were used.
First, BALB/c mice (female, 4 weeks old) were intravenously injected with lipid nanoparticles encapsulating Fluc mRNA (Fluc mRNA-loaded lipid nanoparticles) at a dose of 0.01 mg mRNA/kg. Six hours after intravenous injection, the mice were euthanized, each tissue was collected, frozen in liquid nitrogen, and stored at -80°C. The tissues were homogenized in passive lysis buffer (manufactured by Promega) using a bead-type cell disruptor (Micro Smash MS-100R, manufactured by TOMY Seiko). Tissue debris was removed by centrifugation, and the supernatant was collected. Fluc activity in the supernatant was measured using the Luciferase Assay System (E1500, manufactured by Promega) according to the manufacturer's protocol. Luminescence was measured using a luminometer (Luminescencer-PSN, manufactured by ATTO). Protein concentration was determined using a commercially available assay kit (BCA Protein Assay Kit, manufactured by Pierce). Fluc activity was expressed as relative light units (RLU) per mg of protein.
Specifically, first, each lipid nanoparticle was intravenously administered into the tail vein of mice in an amount of 0.2 mg/kg of Fluc mRNA, and 6 hours after administration of the lipid nanoparticles, about 50 mg each of the liver, spleen, lung, heart, brain, and muscle was collected and stored frozen. 500 µL of passive lysis buffer (manufactured by Promega) was added to each tube containing the collected organ. The liver was homogenized at 4000 rpm for 20 seconds twice, the spleen, kidney, lung, and heart were homogenized at 5000 rpm for 20 seconds twice, and the muscle was homogenized at 5000 rpm for 20 seconds four times; then, the homogenate was centrifuged at 13000 rpm at 4°C for 10 minutes, and the supernatant was collected as a sample for measurement. The liver and spleen were diluted 100 times with passive lysis buffer. 50 µL of a measurement sample (tissue supernatant) was mixed with 50 µL of luciferase assay buffer of the Luciferase Assay System (E1500, manufactured by Promega) previously added in a test tube by pipetting, and the amount of luminescence was measured with a luminometer. Protein concentration was determined using a commercially available assay kit (BCA Protein Assay Kit, manufactured by Pierce). Fluc activity was expressed as relative light units (RLU) per mg of protein.

[2] = tested on: B cells, T cells, NK cells, dendritic cells, and neutrophils; test: uptake of DiD-modified lipid nanoparticles by spleen cell types (DiD fluorescence intensity); format: in vivo, mice; details: Example 37, TOT-5/DSPC/chol/PEG-DMG=65/X/35-X/1.5 (mol%), 1 hour
Protocol: First, DiD-modified Fluc mRNA-loaded lipid nanoparticles having a composition of TOT-5/DSPC/chol/PEG-DMG=65/X/35-X/1.5 (mol%) (X=3, 5, 10, 15, or 20) were prepared in the same manner as in Example 34, except that the red fluorescent substance DiD was incorporated at 0.5 mol% for DiD modification. The obtained DiD-modified Fluc mRNA-loaded lipid nanoparticles were intravenously administered into the tail vein of BALB/c mice so that the dose of Fluc mRNA was 0.2 mg/kg, the mice were euthanized 1 hour after administration, and the spleen was collected (N=3). As a control, the spleen was also collected from BALB/c mice not administered with lipid nanoparticles.
The spleen cells were stained to distinguish B cells, T cells, NK cells, dendritic cells, and neutrophils. […] After removing the supernatant, the cells were resuspended with 5 mL of cold HBSS(-) buffer, the number of cells was counted, the suspensions were added to a 1.5 mL tube so that 3×10^6 cells were added, and centrifuged at 4°C and 400×g for 5 minutes. […] 6 µL of propidium iodide solution was added to the sample, each cell group was extracted by each surface antigen, and then DiD fluorescence intensity was measured.
DiD-positive cells (cells emitting DiD fluorescence) are cells that have taken up DiD-modified Fluc mRNA-loaded lipid nanoparticles. […]

[3] = encapsulation rate of lipid nanoparticles (RiboGreen); format: physicochemical; details: Fluc mRNA-loaded lipid nanoparticles, TOT/DSPC/chol/PEG-DMG=65/15/20/1.5 (mol%)
Protocol: The encapsulation rate of the lipid nanoparticles was determined by measuring the amount of encapsulated nucleic acid (mRNA) using RiboGreen (manufactured by Life Technologies), which is an RNAintercalator. The amount of mRNA was quantified based on a calibration curve prepared from a dilution series solution of mRNA at a known concentration.
Specifically, 10 mM HEPES buffer (pH 7.4), 10 w/v% Triton X-100, and RiboGreen were mixed at 978.8 µL, 20 µL, and 1.25 µL per 10 wells, respectively, to obtain a Triton(+) buffer. A Triton(-) buffer was obtained in replacing Triton X-100 with 10 mM HEPES buffer (pH 7.4). 100 µL/well of the sample was added to a black 96-well plate for fluorescence measurement, and 100 µL/well of Triton(+) buffer or Triton(-) buffer was added. After the plate was gently shaken on a shaking incubator (SI-300, manufactured by AS ONE) (700 rpm, 30 seconds), the fluorescence intensity of each well was measured using a microplate reader (VARIOSKAN LUX, manufactured by Thermo Fisher Scientific) (wavelength Ex/Em=500 nm/525 nm), and the nucleic acid encapsulation rate (%) was calculated.

[4] = average particle size and polydispersity index by dynamic light scattering; format: physicochemical; details: Fluc mRNA-loaded lipid nanoparticles, TOT/DSPC/chol/PEG-DMG=65/15/20/1.5 (mol%)
Protocol: The average particle size (number average value), ζ-average particle size, and polydispersity index (PdI) of the lipid nanoparticles in PBS(-) (pH 7.4), and the zeta potential in 10 mM HEPES buffer (pH 7.4) were measured using an analyzer "Zetasizer Nano ZS ZEN3600" (manufactured by Malvern) utilizing dynamic light scattering.

[5] = tested on: factor VII (F7); details: mouse liver; cited from earlier work
[6] = Example 11, TOT-5/DOPE/chol/PEG-DMG=60/15/25/1, i.v. tail vein
[7] = Example 14, TOT-5/DSPC/chol/PEG-DMG=65/15/20/1, i.v. tail vein
[8] = Example 33, TOT/DSPC/chol/PEG-DMG=65/15/20/1.5, control CL4F6/DSPC/chol/PEG-DMG=50/10/40/1.5 (mol%), i.v. tail vein

CCCCCCCC/C=C\CCCCCCCC(=O)OCC(COC(=O)CCCCCCC/C=C\CCCCCCCC)(COC(=O)CCCCCCC/C=C\CCCCCCCC)NC(=O)CCN1CCCCC1 [TOT-5, 2-((oleoyloxy)methyl)-2-(3-(piperidin-1-yl)propanamido)propane-1,3-diyl dioleate]
Fluc activity (RLU/mg protein) in the liver and spleen ([1]; Example 11, TOT-5/DOPE/chol/PEG-DMG=50 to 65/10 to 35/0 to 40/1 (mol%), all compositions, i.v. tail vein): confirmed
Fluc activity (RLU/mg protein) in the liver [1, 6]: high
Fluc activity (RLU/mg protein) in the spleen [1, 6]: not so high
Fluc activity (RLU/mg protein) in the liver and spleen ([1]; Example 13, TOT/DOPE/chol/PEG-DMG=60/15/25/1.0 (mol%), i.v. tail vein): very high
Fluc activity (RLU/mg protein) in the liver and spleen ([1]; Example 14, TOT-5/DSPC/chol/PEG-DMG=55 to 70/5 to 30/10 to 35/1 (mol%), all compositions, i.v. tail vein): confirmed
Fluc activity (RLU/mg protein) in the liver ([1]; Example 14, TOT-5/DSPC/chol/PEG-DMG=65/5/30/1, i.v. tail vein): very high
Fluc activity (RLU/mg protein) in the liver [1, 7]: not so high
Fluc activity (RLU/mg protein) in the spleen [1, 7]: high
luciferase activity in the spleen compared with control mice (CL4F6-containing lipid nanoparticles) [1, 8]: higher
Fluc activity, predominant organ (liver or spleen) ([1]; DSPC content 10 mol% or more): predominantly in the spleen
Fluc activity, predominant organ (liver or spleen) ([1]; DSPC content less than 10 mol%): predominantly in the liver
uptake by spleen cell types (DiD fluorescence intensity) ([2]; X=3, 5, 10, 15, or 20, i.v. 0.2 mg/kg Fluc mRNA): highly taken up by B cells and dendritic cells
improvement of the uptake by B cells by increasing the DSPC content ([2]; X=3 to 20, i.v. 0.2 mg/kg Fluc mRNA): about 10 times
Encapsulation Rate [3]: 88.6%
PdI [4]: 0.161
ζ-Average Particle Size [4]: 102.1 nm

CCCCC/C=C\C/C=C\CCCCCCCCOC1(OCCCCCCCC/C=C\C/C=C\CCCCC)CCN(C)CC1 [YSK05]
ED50 in factor VII (F7) knockdown [5]: 0.06 mg siRNA/kg

CCCCC/C=C\C/C=C\CCCCCCCCC(CCCCCCCC/C=C\C/C=C\CCCCC)OC(=O)CCCN(C)C [DLin-MC3-DMA]
ED50 in factor VII (F7) knockdown [5]: 0.005 mg siRNA/kg

CCCCCCCC/C=C\CCCCCCCC(=O)OCC(COC(=O)CCCCCCC/C=C\CCCCCCCC)(COC(=O)CCCCCCC/C=C\CCCCCCCC)NC(=O)CNC [TOT-7, 2-(2-(methylamino)acetamido)-2-((oleoyloxy)methyl)propane-1,3-diyl dioleate]
luciferase activity in the heart compared with control mice (CL4F6-containing lipid nanoparticles) [1, 8]: higher
Encapsulation Rate [3]: 92.4%
PdI [4]: 0.232
ζ-Average Particle Size [4]: 128.0 nm

Source: EP4559896A1, “PH-SENSITIVE CATIONIC LIPID AND LIPID NANOPARTICLE” (National University Corporation Hokkaido University, priority 2022, dated 2024)
